Consider 25 compounds from patent US20250171437A1 (Agios Pharmaceuticals,Inc., priority 2022, published 2025).

Each structure is given as a SMILES string.

In general, AC50 refers to the midpoint of the concentration-response curve, whichever way the signal moves.

In this experiment the target is T1, human PAH with the R408W mutation (A375 R408W cells) (Homo sapiens, UniProt P00439, R408W).
T1 construct: expressed in transfected cells
T1 sequence (P00439 1-452 R408W): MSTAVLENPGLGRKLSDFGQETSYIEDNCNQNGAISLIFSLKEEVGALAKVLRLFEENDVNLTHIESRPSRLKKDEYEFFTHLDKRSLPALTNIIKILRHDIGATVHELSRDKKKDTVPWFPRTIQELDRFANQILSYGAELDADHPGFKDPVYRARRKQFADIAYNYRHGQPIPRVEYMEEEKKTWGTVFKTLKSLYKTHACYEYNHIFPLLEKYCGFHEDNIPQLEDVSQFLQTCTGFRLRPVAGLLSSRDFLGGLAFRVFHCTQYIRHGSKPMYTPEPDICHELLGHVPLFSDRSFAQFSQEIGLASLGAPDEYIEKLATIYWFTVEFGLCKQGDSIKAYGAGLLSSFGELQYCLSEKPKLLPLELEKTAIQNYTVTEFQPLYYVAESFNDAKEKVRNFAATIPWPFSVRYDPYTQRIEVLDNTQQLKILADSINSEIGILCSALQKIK
The experiment can be described thus: Cell Based Phenylalanine Flux Assay. As to conditions: A375 R408W cells; 24 hrs with compound, then 20 μM sepiapterin and 800 μM 13C9,15N-Phenylalanine for 4 hours; 13C-Tyrosine by LC-MS; average where tested multiple times. In outline:
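A375 cells stably expressing human PAH R408W treated 24 h at 37° C with a 10-point 2-fold dose curve in duplicate, 0.5% DMSO. Then 20 μM sepiapterin and 800 μM 13C9,15N-Phe added for 4 h; 13C-Tyr in media measured by LC-MS to give AC50.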
`COc1cccc2oc([C@H]3c4nc[nH]c4CCN3C(=O)c3oc(C(C)(C)O)nc3C(F)F)nc12` [Example 428, (R)-(4-(difluoromethyl)-2-(2-hydroxypropan-2-yl)oxazol-5-yl)(4-(4-methoxybenzo[d]oxazol-2-yl)-6,7-dihydro-1H-imidazo[4,5-c]pyridin-5(4H)-yl)methanone]: the half-maximal activity concentration (AC50) fell in the range of 1000 to 5000 nM.

On to `COc1cccc2oc([C@@H]3c4nc[nH]c4CCN3C(=O)c3ocnc3C(F)F)nc12` [Example 429, (S)-(4-(difluoromethyl)oxazol-5-yl)(4-(4-methoxybenzo[d]oxazol-2-yl)-6,7-dihydro-1H-imidazo[4,5-c]pyridin-5(4H)-yl)methanone], for which the half-maximal activity concentration (AC50) was at most 500 nM.

In the case of `COc1cccc2oc([C@H]3c4nc[nH]c4CCN3C(=O)c3ocnc3C(F)F)nc12` [Example 430, (R)-(4-(difluoromethyl)oxazol-5-yl)(4-(4-methoxybenzo[d]oxazol-2-yl)-6,7-dihydro-1H-imidazo[4,5-c]pyridin-5(4H)-yl)methanone], the AC50 fell in the range of 500 to 1000 nM.

For the compound `CC(C)(O)c1nc(C(F)F)c(C(=O)N2CCc3[nH]cnc3[C@H]2c2nc3c(Br)cccc3o2)o1` [Example 431, (S)-(4-(4-bromobenzo[d]oxazol-2-yl)-6,7-dihydro-1H-imidazo[4,5-c]pyridin-5(4H)-yl)(4-(difluoromethyl)-2-(2-hydroxypropan-2-yl)oxazol-5-yl)methanone], the half-maximal activity concentration (AC50) is at most 500 nM. As for `CC(C)(O)c1nc(C(F)F)c(C(=O)N2CCc3[nH]cnc3[C@@H]2c2nc3c(Br)cccc3o2)o1` [Example 432, (R)-(4-(4-bromobenzo[d]oxazol-2-yl)-6,7-dihydro-1H-imidazo[4,5-c]pyridin-5(4H)-yl)(4-(difluoromethyl)-2-(2-hydroxypropan-2-yl)oxazol-5-yl)methanone], the AC50 is at most 500 nM. In the case of `O=C(c1ocnc1C(F)F)N1CCc2[nH]cnc2[C@H]1c1nc2c(Br)cccc2o1` [Example 433, (S)-(4-(4-bromobenzo[d]oxazol-2-yl)-6,7-dihydro-1H-imidazo[4,5-c]pyridin-5(4H)-yl)(4-(difluoromethyl)oxazol-5-yl)methanone], the AC50 is at most 500 nM.

For `O=C(c1ocnc1C(F)F)N1CCc2[nH]cnc2[C@@H]1c1nc2c(Br)cccc2o1` [Example 434, (R)-(4-(4-bromobenzo[d]oxazol-2-yl)-6,7-dihydro-1H-imidazo[4,5-c]pyridin-5(4H)-yl)(4-(difluoromethyl)oxazol-5-yl)methanone], the AC50 was at most 500 nM. Turning to `CC(C)(O)c1nc(C(F)F)c(C(=O)N2CCc3[nH]cnc3[C@H]2c2nc3c(Cl)cccc3o2)o1` [Example 435, [(4S)-4-(4-chloro-1,3-benzoxazol-2-yl)-1,4,6,7-tetrahydroimidazo[4,5-c]pyridin-5-yl]-[4-(difluoromethyl)-2-(1-hydroxy-1-methyl-ethyl)oxazol-5-yl]methanone], the half-maximal activity concentration (AC50) is at most 500 nM.

`CC(C)(O)c1nc(C(F)F)c(C(=O)N2CCc3[nH]cnc3[C@@H]2c2nc3c(Cl)cccc3o2)o1` [Example 436, [(4R)-4-(4-chloro-1,3-benzoxazol-2-yl)-1,4,6,7-tetrahydroimidazo[4,5-c]pyridin-5-yl]-[4-(difluoromethyl)-2-(1-hydroxy-1-methyl-ethyl)oxazol-5-yl]methanone]: the half-maximal activity concentration (AC50) lay in the range of 500 to 1000 nM. Consider `O=C(c1ocnc1C(F)F)N1CCc2[nH]cnc2[C@H]1c1nc2c(Cl)cccc2o1` [Example 437, [(4S)-4-(4-chloro-1,3-benzoxazol-2-yl)-1,4,6,7-tetrahydroimidazo[4,5-c]pyridin-5-yl]-[4-(difluoromethyl)oxazol-5-yl]methanone], for which the AC50 was at most 500 nM. Regarding `O=C(c1ocnc1C(F)F)N1CCc2[nH]cnc2[C@@H]1c1nc2c(Cl)cccc2o1` [Example 438, [(4R)-4-(4-chloro-1,3-benzoxazol-2-yl)-1,4,6,7-tetrahydroimidazo[4,5-c]pyridin-5-yl]-[4-(difluoromethyl)oxazol-5-yl]methanone], the AC50 was at most 500 nM. The same measure for `Cc1ccc2nc([C@@H]3c4nc[nH]c4CCN3C(=O)c3oc(C(C)(C)O)nc3Br)oc2c1` [Example 439, (S)-(4-bromo-2-(2-hydroxypropan-2-yl)oxazol-5-yl)(4-(6-methylbenzo[d]oxazol-2-yl)-6,7-dihydro-1H-imidazo[4,5-c]pyridin-5(4H)-yl)methanone]: at most 500 nM; for `Cc1ccc2nc([C@H]3c4nc[nH]c4CCN3C(=O)c3oc(C(C)(C)O)nc3Br)oc2c1` [Example 440, (R)-(4-bromo-2-(2-hydroxypropan-2-yl)oxazol-5-yl)(4-(6-methylbenzo[d]oxazol-2-yl)-6,7-dihydro-1H-imidazo[4,5-c]pyridin-5(4H)-yl)methanone]: 1000 to 5000 nM; for `COc1ccc(-c2nnc(C(=O)N3CCc4[nH]cnc4[C@@H]3c3nc4cc(F)ccc4o3)o2)nc1` [Example 441, (R)-(4-(5-fluorobenzo[d]oxazol-2-yl)-6,7-dihydro-1H-imidazo[4,5-c]pyridin-5(4H)-yl)(5-(5-methoxypyridin-2-yl)-1,3,4-oxadiazol-2-yl)methanone]: 1000 to 5000 nM.

Regarding `COc1ccc(-c2nnc(C(=O)N3CCc4[nH]cnc4[C@H]3c3nc4cc(F)ccc4o3)o2)nc1` [Example 442, (S)-(4-(5-fluorobenzo[d]oxazol-2-yl)-6,7-dihydro-1H-imidazo[4,5-c]pyridin-5(4H)-yl)(5-(5-methoxypyridin-2-yl)-1,3,4-oxadiazol-2-yl)methanone], the concentration at half-maximal activity (AC50) was in the range of 500 to 1000 nM. For the compound `O=C(c1oc(-c2ccc(C(F)(F)F)cn2)nc1C(F)F)N1CCc2[nH]cnc2[C@@H]1c1nc2cc(F)ccc2o1` [Example 443, (R)-(4-(difluoromethyl)-2-(5-(trifluoromethyl)pyridin-2-yl)oxazol-5-yl)(4-(5-fluorobenzo[d]oxazol-2-yl)-6,7-dihydro-1H-imidazo[4,5-c]pyridin-5(4H)-yl)methanone], the AC50 was in the range of 500 to 1000 nM. `O=C(c1oc(-c2ccc(C(F)(F)F)cn2)nc1C(F)F)N1CCc2[nH]cnc2[C@H]1c1nc2cc(F)ccc2o1` [Example 444, (S)-(4-(difluoromethyl)-2-(5-(trifluoromethyl)pyridin-2-yl)oxazol-5-yl)(4-(5-fluorobenzo[d]oxazol-2-yl)-6,7-dihydro-1H-imidazo[4,5-c]pyridin-5(4H)-yl)methanone]: the half-maximal activity concentration (AC50) was at most 500 nM. As for `COc1ccc(-c2nc(C(F)F)c(C(=O)N3CCc4[nH]cnc4[C@H]3c3nc4cc(F)ccc4o3)o2)nc1` [Example 445, (S)-(4-(difluoromethyl)-2-(5-methoxypyridin-2-yl)oxazol-5-yl)(4-(5-fluorobenzo[d]oxazol-2-yl)-6,7-dihydro-1H-imidazo[4,5-c]pyridin-5(4H)-yl)methanone], the half-maximal activity concentration (AC50) is at most 500 nM. With `COc1ccc(-c2nc(C(F)F)c(C(=O)N3CCc4[nH]cnc4[C@@H]3c3nc4cc(F)ccc4o3)o2)nc1` [Example 446, (R)-(4-(difluoromethyl)-2-(5-methoxypyridin-2-yl)oxazol-5-yl)(4-(5-fluorobenzo[d]oxazol-2-yl)-6,7-dihydro-1H-imidazo[4,5-c]pyridin-5(4H)-yl)methanone], the AC50 is at most 500 nM. On to `Cc1cccc2oc([C@@H]3c4nc[nH]c4CCN3C(=O)c3nc(C(F)F)nn3C)nc12` [Example 447, (S)-(3-(difluoromethyl)-1-methyl-1H-1,2,4-triazol-5-yl)(4-(4-methylbenzo[d]oxazol-2-yl)-6,7-dihydro-1H-imidazo[4,5-c]pyridin-5(4H)-yl)methanone], for which the AC50 was at most 500 nM. The same measure for `Cc1cccc2oc([C@H]3c4nc[nH]c4CCN3C(=O)c3nc(C(F)F)nn3C)nc12` [Example 448, (R)-(3-(difluoromethyl)-1-methyl-1H-1,2,4-triazol-5-yl)(4-(4-methylbenzo[d]oxazol-2-yl)-6,7-dihydro-1H-imidazo[4,5-c]pyridin-5(4H)-yl)methanone]: 1000 to 5000 nM; for `Cc1cccc2oc([C@@H]3c4nc[nH]c4CCN3C(=O)c3ccnn3C(F)F)nc12` [Example 449, (S)-(1-(difluoromethyl)-1H-pyrazol-5-yl)(4-(4-methylbenzo[d]oxazol-2-yl)-6,7-dihydro-1H-imidazo[4,5-c]pyridin-5(4H)-yl)methanone]: at most 500 nM; for `Cc1cccc2oc([C@H]3c4nc[nH]c4CCN3C(=O)c3ccnn3C(F)F)nc12` [Example 450, (R)-(1-(difluoromethyl)-1H-pyrazol-5-yl)(4-(4-methylbenzo[d]oxazol-2-yl)-6,7-dihydro-1H-imidazo[4,5-c]pyridin-5(4H)-yl)methanone]: 1000 to 5000 nM. With `O=C(c1cnn2cc(-c3ccccn3)ccc12)N1CCc2[nH]cnc2[C@H]1c1nc2cccc(F)c2o1` [Example 451, (S)-(4-(7-fluorobenzo[d]oxazol-2-yl)-6,7-dihydro-1H-imidazo[4,5-c]pyridin-5(4H)-yl)(6-(pyridin-2-yl)pyrazolo[1,5-a]pyridin-3-yl)methanone] the figure was at most 500 nM; with `O=C(c1cnn2cc(-c3ccccn3)ccc12)N1CCc2[nH]cnc2[C@@H]1c1nc2cccc(F)c2o1` [Example 452, (R)-(4-(7-fluorobenzo[d]oxazol-2-yl)-6,7-dihydro-1H-imidazo[4,5-c]pyridin-5(4H)-yl)(6-(pyridin-2-yl)pyrazolo[1,5-a]pyridin-3-yl)methanone], 1000 to 5000 nM.
